The source made the active and inactive calls. No cut-off for these calls is given here.
Key:
[1] = tested on: Trypanosoma cruzi; assay: Effect on infection-mediated heart weight in Trypanosoma cruzi Y strain trypomastigotes infected in BALB/c mouse model at 25 mg/kg/day, po administered for consecutive 10 days; assay type: functional, organism-based; conditions: time 10.0 day
[2] = Cytotoxicity against monkey LLC-MK2 cells incubated for 72 hrs by MTT assay; assay type: toxicity, cell-based, Macaca mulatta; conditions: rhesus monkey
[3] = tested on: Trypanosoma cruzi; assay: (§1) Antitrypanosomal activity against Trypanosoma cruzi Tulahuen lacZ expressing beta-galactosidase amastigotes infected in monkey LLC-MK2 cells assessed as inhibition of amastigotes pre-infected in cells for 48 hrs followed by compound addition and measured after 72 hrs by CPRG reagent based absorbance analysis; assay type: functional, organism-based
[4] = Selectivity index, ratio of CC50 for monkey LLC-MK2 cells to IC50 for Trypanosoma cruzi Tulahuen lacZ expressing beta-galactosidase amastigotes infected monkey LLC-MK2 cells; assay type: toxicity; conditions: read-out: Ratio CC50/IC50
[5] = tested on: Trypanosoma cruzi; assay: Binding affinity to Trypanosoma cruzi type I nitro reductase at 25 uM incubated for 5 mins in the presence of NADH by microplate reader analysis
[6] = tested on: Trypanosoma cruzi; assay: Binding affinity to Trypanosoma cruzi type I nitro reductase at 10 uM incubated for 5 mins in the presence of NADH by microplate reader analysis
[7] = tested on: Trypanosoma cruzi; assay: Antitrypanosomal activity against Trypanosoma cruzi Y trypomastigotes infected in BALB/c mouse model assessed as reduction of parasitemia level at 25 mg/kg/day, po administered via gavage for consecutive 10 days and measured on day 5,7,9 and 11; assay type: functional, organism-based; conditions: time 11.0 day
[8] = tested on: Trypanosoma cruzi; assay: Antitrypanosomal activity against Trypanosoma cruzi Y strain trypomastigotes infection induced hepatosplenomegaly BALB/c male mouse model assessed as change in infection-mediated liver weight at 25 mg/kg/day, po administrated for consecutive 10 days; assay type: functional, organism-based; conditions: time 10.0 day
[9] = tested on: Trypanosoma cruzi; assay: Antitrypanosomal activity against Trypanosoma cruzi Y strain trypomastigotes infection induced hepatosplenomegaly BALB/c male mouse model assessed as change in infection-mediated spleen weight at 25 mg/kg/day, po administrated for consecutive 10 days; assay type: functional, organism-based; conditions: time 10.0 day
[10] = Toxicity in BALB/c mouse infected with Trypanosoma cruzi Y trypomastigotes assessed as body weight gain at 25 mg/kg/day, po administrated via gavage for consecutive 10 days; assay type: organism-based; conditions: in vivo, 240 h, time 10 day
[11] = tested on: Leishmania amazonensis; assay: (§2) Antileishmanial activity against Leishmania amazonensis IFLA/BR/1967/PH8 amastigotes infected in mouse peritoneal macrophage assessed as inhibition of parasite growth pre-infected in cells for 4 hrs followed by compound addition and measured after 24 hrs by Giemsa staining based analysis; assay type: functional, organism-based; conditions: IFLA/BR/1967/PH8, Peritoneal macrophage
[12] = Selectivity index, ratio of CC50 for cytotoxicity against monkey LLC-MK2 cells to IC50 for antileishmanial activity against Leishmania amazonensis IFLA/BR/1967/PH8 amastigotes infected in mouse peritoneal macrophage; assay type: toxicity, cell-based; conditions: read-out: Ratio CC50/IC50
[13] = tested on: Trypanosoma cruzi; assay: as §1, with “Potency index, ratio of benznidazole IC50 to test compound IC50 for antitrypanosomal” for “Antitrypanosomal”; assay type: functional
[14] = Toxicity in BALB/c mouse infected with Trypanosoma cruzi Y trypomastigotes assessed as animal survival at 25 mg/kg/day, po administrated via gavage for consecutive 10 days relative to control; assay type: organism-based; conditions: in vivo, time 10 day
[15] = tested on: Trypanosoma cruzi; assay: (§3) Antitrypanosomal activity against Trypanosoma cruzi Y trypomastigotes infected in BALB/c mouse model assessed as reduction of parasitemia level at 25 mg/kg/day, po administered via gavage observed on 7 day of post infection relative to control; assay type: functional; parameters: scale not given: the % may be the effect or the level left
[16] = tested on: Trypanosoma cruzi; assay: as §3, with “parasite load in cardiac tissue by measuring reduction in DNA copy number” for “parasitemia level”, “11” for “7”, “infection by qPCR analysis” for “infection”; assay type: functional; parameters: scale not given: the % may be the effect or the level left
[17] = tested on: Trypanosoma cruzi; assay: Antitrypanosomal activity against Trypanosoma cruzi Y trypomastigotes infected in BALB/c mouse model assessed as reduction of parasitemia level at 25 mg/kg/day, po administered via gavage administrated for consecutive 10 days and measured on day 11; assay type: functional, organism-based; conditions: time 11.0 day
[18] = Toxicity in BALB/c mouse infected with Trypanosoma cruzi Y trypomastigotes assessed as body weight loss at 25 mg/kg/day, po administrated via gavage for consecutive 10 days; assay type: organism-based; conditions: in vivo, 240 h, time 10 day
[19] = Toxicity in BALB/c mouse infected with Trypanosoma cruzi Y trypomastigotes assessed as animal survival at 25 mg/kg/day, po administrated via gavage for consecutive 10 days; assay type: organism-based; conditions: in vivo, 240 h, time 10 day
[20] = tested on: Leishmania amazonensis; assay: as §2, with “Potency index, ratio of pentamidine IC50 to test compound IC50 for antileishmanial” for “Antileishmanial”; assay type: functional, Peritoneal macrophage cell
[21] = tested on: Trypanosoma cruzi; assay: Antitrypanosomal activity against Trypanosoma cruzi Y trypomastigotes infected in BALB/c mouse model assessed as reduction of parasite load in cardiac tissue by measuring reduction in DNA copy number at 25 to 100 mg/kg/day, po administered via gavage observed on 11 day of post infection by qPCR analysis relative to control; assay type: functional; parameters: scale not given: the % may be the effect or the level left; conditions: dose 25-100 mg/kg/day
[22] = tested on: Trypanosoma cruzi; assay: Effect on infection-mediated heart weight in Trypanosoma cruzi Y strain trypomastigotes infected in BALB/c mouse model at 100 mg/kg/day, po administered for consecutive 10 days; assay type: functional, organism-based; conditions: time 10.0 day
[23] = Toxicity in BALB/c mouse infected with Trypanosoma cruzi Y trypomastigotes assessed as body weight gain at 100 mg/kg/day, po administrated via gavage for consecutive 10 days; assay type: organism-based; conditions: in vivo, 240 h, time 10 day
[24] = Toxicity in BALB/c mouse infected with Trypanosoma cruzi Y trypomastigotes assessed as animal survival at 100 mg/kg/day, po administrated via gavage for consecutive 10 days relative to control; assay type: organism-based; conditions: in vivo, time 10 day

Row | Compound | Activity [1] | CC50 at 72 h [2] [µM] | IC50 [3] [µM] | selectivity ratio [4] | Kobs [5] [s⁻¹] | Kobs [6] [s⁻¹] | Activity [7] | Activity [8] | Activity [9] | Activity [10] | IC50 [11] [µM] | selectivity ratio [12] | Ratio IC50 [13] | survival at 240 h [14] [%] | Ratio IC50 [20] | other results
1 | CN1CCN(c2ccc(-c3cc(Cn4ccnc4[N+](=O)[O-])on3)cc2)CC1 | inactive | > 50 | 0.4 | > 125 | 0.38 | 0.21 | inactive | Active | Active | Non-Toxic | 15.6 | > 3.2 | 10 | 100 |  | 
2 | CCN1CCN(c2ccc(-c3cc(Cn4ccnc4[N+](=O)[O-])on3)cc2)CC1 | inactive | > 50 | 1.6 | > 30.8 | 0.48 | 0.23 |  | Active | Active | Non-Toxic | 5.5 | > 9 |  | 100 |  | Activity [15]: 77%; Activity [16]: 73%; Activity [17]: inactive
3 | COc1ccc(-c2cc(Cn3ccnc3[N+](=O)[O-])on2)cc1OC | inactive | > 50 | 0.2 | > 200 | 0.82 | 0.57 | inactive | Active | Active |  | 19.6 | > 2.5 | 15 |  |  | Activity [18]: Toxic; Activity [19]: Toxic
4 | O=[N+]([O-])c1nccn1Cc1cc(-c2ccc(N3CCNCC3)cc2)no1 |  | > 50 | 4.7 | > 10.5 |  |  |  |  |  |  | 2.5 | > 19.8 |  |  | 6.6 | 
5 | O=[N+]([O-])c1nccn1Cc1cc(-c2ccc3c(c2)OCO3)no1 |  | > 50 | 3.6 | > 13.8 |  |  |  |  |  |  | 8.3 | > 6 |  |  | 2 | 
6 | O=[N+]([O-])c1nccn1Cc1cc(-c2ccc(O)cc2)no1 | inactive | > 50 | 0.6 | > 87.7 | 0.68 | 0.47 | inactive | Active | Active | Non-Toxic | 18.7 | > 2.7 | 12 | 100 |  | 
7 | O=[N+]([O-])c1ccc(-c2cc(Cn3ccnc3[N+](=O)[O-])on2)o1 |  | > 50 | 0.9 | > 51 | 1.27 | 0.75 |  |  |  |  |  |  | 5.4 |  |  | 
8 | CN1CCCN(c2ccc(-c3cc(Cn4ccnc4[N+](=O)[O-])on3)cc2)CC1 |  | > 50 | 1.6 | > 32 |  |  |  |  |  |  | 2.3 | > 21.3 |  |  | 7.1 | 
9 | O=C(Cn1ccnc1[N+](=O)[O-])NCc1ccccc1 [BENZNIDAZOLE] | inactive | > 50 | 3.8 | > 9.3 | 0.3 | 0.13 | inactive | Active | Active | Non-Toxic |  |  |  | 100 |  | Activity [21]: 99%; Activity [22]: inactive; Activity [23]: Non-Toxic; survival at 240 h [24]: 100%
